In brackets after ≈: the same amount, converted by molar mass. Like-named read-outs stand apart in the source and are kept apart here.
Tests used:
Type in all cases: cell-based
[1] = test system: Bacteroides thetaiotaomicron ATCC 29741; experiment: microbe, parasite or virus in culture; settings: ATCC29741, 48 h, read-out: MIC, B. thetaiotaomicron ATCC
[2] = test system: strains of Peptoniphilus harei; experiment: MIC against anaerobes, agar dilution (CLSI), clinical isolates
[3] = test system: Bacteroides fragilis ATCC 25285; experiment: MIC against anaerobes, agar dilution (CLSI), reference strain; settings: ATCC25285, 48 h, read-out: MIC, B. fragilis ATCC 25285
[4] = test system: strains of Bacteroides thetaiotaomicron; experiment: microbe, parasite or virus in culture
[5] = test system: strains of Propionibacterium acnes; experiment: MIC against anaerobes, agar dilution (CLSI), clinical isolates; settings: Cutibacterium acnes
[6] = test system: strains of Clostridium perfringens; experiment: microbe, parasite or virus in culture
[7] = test system: strains of Peptostreptococcus anaerobius; experiment: MIC against anaerobes, agar dilution (CLSI), clinical isolates
[8] = test system: Clostridium difficile ATCC 700057; experiment: MIC against anaerobes, agar dilution (CLSI), reference strain; settings: Clostridioides difficile, ATCC700057, 48 h, read-out: MIC, C. difficile ATCC 700057
[9] = test system: strains of Bacteroides fragilis; experiment: MIC against anaerobes, agar dilution (CLSI), clinical isolates
[10] = test system: strains of Prevotella melaninogenica; experiment: as above
[11] = test system: strains of Finegoldia magna; experiment: as above
[12] = test system: strains of Parvimonas micra; experiment: as above
[13] = test system: strains of Prevotella bivia; experiment: as above

`CN[C@H](CC(C)C)C(=O)N[C@H]1C(=O)N[C@@H](CC(N)=O)C(=O)N[C@H]2C(=O)N[C@H]3C(=O)N[C@H](C(=O)N[C@H](C(=O)O)c4cc(O)cc(O)c4-c4cc3ccc4O)[C@H](O)c3ccc(c(Cl)c3)Oc3cc2cc(c3O[C@@H]2O[C@H](CO)[C@@H](O)[C@H](O)[C@H]2O[C@H]2C[C@](C)(N)[C@H](O)[C@H](C)O2)Oc2ccc(cc2Cl)[C@H]1O` [VAN, vancomycin, reference compound] was tested, and the MIC [1] was 16 to 64 µg/mL (≈ 11 to 44.2 µM), the MIC ([2]; Peptoniphilus harei strain 1) was “A (a MIC (in μg/mL) of less than 1 is assigned the letter A)” and the MIC ([2]; Peptoniphilus harei strain 2) was “A (a MIC (in μg/mL) of less than 1 is assigned the letter A)”. The MIC ([2]; Peptoniphilus harei strain 3) was “A (a MIC (in μg/mL) of less than 1 is assigned the letter A)”, the MIC ([2]; Peptoniphilus harei strain 4) was “A (a MIC (in μg/mL) of less than 1 is assigned the letter A)” and the MIC ([2]; Peptoniphilus harei strain 5) was “A (a MIC (in μg/mL) of less than 1 is assigned the letter A)”. For the same molecule, the MIC ([2]; Peptoniphilus harei strain 6, read-out: MIC) was < 1 µg/mL, the MIC ([2]; Peptoniphilus harei strain 7) was “A (a MIC (in μg/mL) of less than 1 is assigned the letter A)” and the MIC ([2]; Peptoniphilus harei strain 8) was “A (a MIC (in μg/mL) of less than 1 is assigned the letter A)”. The MIC ([2]; Peptoniphilus harei strain 9) was “A (a MIC (in μg/mL) of less than 1 is assigned the letter A)”, the MIC ([2]; Peptoniphilus harei strain 10) was “A (a MIC (in μg/mL) of less than 1 is assigned the letter A)” and the MIC ([2]; Peptoniphilus harei strain 11) was “A (a MIC (in μg/mL) of less than 1 is assigned the letter A)”. The MIC ([2]; Peptoniphilus harei strain 12) was “A (a MIC (in μg/mL) of less than 1 is assigned the letter A)”, the MIC [3] was 16 to 64 µg/mL (≈ 11 to 44.2 µM) and the MIC ([4]; Bacteroides thetaiotaomicron strain 1, read-out: MIC) was 16 to 64 µg/mL (≈ 11 to 44.2 µM). The MIC ([4]; Bacteroides thetaiotaomicron strain 2, read-out: MIC) was 16 to 64 µg/mL (≈ 11 to 44.2 µM), the MIC ([4]; Bacteroides thetaiotaomicron strain 3, read-out: MIC) was 16 to 64 µg/mL (≈ 11 to 44.2 µM) and the MIC ([4]; Bacteroides thetaiotaomicron strain 4, read-out: MIC) was 16 to 64 µg/mL (≈ 11 to 44.2 µM). It also gave an MIC ([4]; Bacteroides thetaiotaomicron strain 5, read-out: MIC) of 16 to 64 µg/mL (≈ 11 to 44.2 µM), an MIC ([4]; Bacteroides thetaiotaomicron strain 6, read-out: MIC) of 16 to 64 µg/mL (≈ 11 to 44.2 µM) and an MIC ([4]; Bacteroides thetaiotaomicron strain 7, read-out: MIC) of 16 to 64 µg/mL (≈ 11 to 44.2 µM). For the same molecule, the MIC ([4]; Bacteroides thetaiotaomicron strain 8, read-out: MIC) was 16 to 64 µg/mL (≈ 11 to 44.2 µM), the MIC ([4]; Bacteroides thetaiotaomicron strain 9, read-out: MIC) was < 1 µg/mL and the MIC ([4]; Bacteroides thetaiotaomicron strain 10, read-out: MIC) was 16 to 64 µg/mL (≈ 11 to 44.2 µM). For the same molecule, the MIC ([4]; Bacteroides thetaiotaomicron strain 11, read-out: MIC) was 16 to 64 µg/mL (≈ 11 to 44.2 µM), the MIC ([5]; Propionibacterium acnes strain 1) was < 1 µg/mL and the MIC ([5]; Propionibacterium acnes strain 2) was < 1 µg/mL. For the same molecule, the MIC ([5]; Propionibacterium acnes strain 3) was < 1 µg/mL, the MIC ([5]; Propionibacterium acnes strain 4) was < 1 µg/mL and the MIC ([5]; Propionibacterium acnes strain 5) was < 1 µg/mL. For the same molecule, the MIC ([5]; Propionibacterium acnes strain 6) was < 1 µg/mL, the MIC ([5]; Propionibacterium acnes strain 7) was < 1 µg/mL and the MIC ([5]; Propionibacterium acnes strain 8) was < 1 µg/mL. The MIC ([5]; Propionibacterium acnes strain 9) was < 1 µg/mL, the MIC ([5]; Propionibacterium acnes strain 10) was < 1 µg/mL and the MIC ([5]; Propionibacterium acnes strain 11) was < 1 µg/mL. For the same molecule, the MIC ([5]; Propionibacterium acnes strain 12) was 4 to 16 µg/mL (≈ 2.76 to 11 µM), the MIC [6] was < 1 µg/mL and the MIC ([7]; Peptostreptococcus anaerobius strain 1) was < 1 µg/mL. The MIC ([7]; Peptostreptococcus anaerobius strain 2) was < 1 µg/mL, the MIC ([7]; Peptostreptococcus anaerobius strain 3) was < 1 µg/mL and the MIC ([7]; Peptostreptococcus anaerobius strain 4) was > 64 µg/mL. The MIC ([7]; Peptostreptococcus anaerobius strain 5) was < 1 µg/mL, the MIC ([7]; Peptostreptococcus anaerobius strain 6) was < 1 µg/mL and the MIC ([7]; Peptostreptococcus anaerobius strain 7) was < 1 µg/mL. For the same molecule, the MIC ([7]; Peptostreptococcus anaerobius strain 8) was < 1 µg/mL, the MIC ([7]; Peptostreptococcus anaerobius strain 9) was < 1 µg/mL and the MIC ([7]; Peptostreptococcus anaerobius strain 10) was < 1 µg/mL. It also gave an MIC [8] of 1 to 4 µg/mL (≈ 0.69 to 2.76 µM), an MIC ([9]; Bacteroides fragilis strain 1) of 16 to 64 µg/mL (≈ 11 to 44.2 µM) and an MIC ([9]; Bacteroides fragilis strain 2) of 16 to 64 µg/mL (≈ 11 to 44.2 µM). The MIC ([9]; Bacteroides fragilis strain 3) was 4 to 16 µg/mL (≈ 2.76 to 11 µM), the MIC ([9]; Bacteroides fragilis strain 4) was 16 to 64 µg/mL (≈ 11 to 44.2 µM) and the MIC ([9]; Bacteroides fragilis strain 5) was 16 to 64 µg/mL (≈ 11 to 44.2 µM). It also gave an MIC ([9]; Bacteroides fragilis strain 6) of 4 to 16 µg/mL (≈ 2.76 to 11 µM), an MIC ([9]; Bacteroides fragilis strain 7) of 4 to 16 µg/mL (≈ 2.76 to 11 µM) and an MIC ([9]; Bacteroides fragilis strain 8) of 16 to 64 µg/mL (≈ 11 to 44.2 µM). The MIC ([9]; Bacteroides fragilis strain 9) was 4 to 16 µg/mL (≈ 2.76 to 11 µM), the MIC ([9]; Bacteroides fragilis strain 10) was 16 to 64 µg/mL (≈ 11 to 44.2 µM) and the MIC ([9]; Bacteroides fragilis strain 11) was 16 to 64 µg/mL (≈ 11 to 44.2 µM). The MIC ([9]; Bacteroides fragilis strain 12) was 16 to 64 µg/mL (≈ 11 to 44.2 µM), the MIC ([10]; Prevotella melaninogenica strain 1) was > 64 µg/mL and the MIC ([10]; Prevotella melaninogenica strain 2) was 4 to 16 µg/mL (≈ 2.76 to 11 µM). The MIC ([10]; Prevotella melaninogenica strain 3) was > 64 µg/mL, the MIC ([10]; Prevotella melaninogenica strain 4) was > 64 µg/mL and the MIC ([10]; Prevotella melaninogenica strain 5) was 16 to 64 µg/mL (≈ 11 to 44.2 µM). The MIC ([10]; Prevotella melaninogenica strain 6) was > 64 µg/mL, the MIC ([10]; Prevotella melaninogenica strain 7) was 16 to 64 µg/mL (≈ 11 to 44.2 µM) and the MIC ([10]; Prevotella melaninogenica strain 8) was 4 to 16 µg/mL (≈ 2.76 to 11 µM). The MIC ([10]; Prevotella melaninogenica strain 9) was 4 to 16 µg/mL (≈ 2.76 to 11 µM), the MIC ([10]; Prevotella melaninogenica strain 10) was > 64 µg/mL and the MIC ([10]; Prevotella melaninogenica strain 11) was > 64 µg/mL. For the same molecule, the MIC ([11]; Finegoldia magna strain 1) was “A (a MIC (in μg/mL) of less than 1 is assigned the letter A)”, the MIC ([11]; Finegoldia magna strain 2) was “A (a MIC (in μg/mL) of less than 1 is assigned the letter A)” and the MIC ([11]; Finegoldia magna strain 3) was “A (a MIC (in μg/mL) of less than 1 is assigned the letter A)”. The MIC ([11]; Finegoldia magna strain 4) was “A (a MIC (in μg/mL) of less than 1 is assigned the letter A)”, the MIC ([11]; Finegoldia magna strain 5) was “A (a MIC (in μg/mL) of less than 1 is assigned the letter A)” and the MIC ([11]; Finegoldia magna strain 6, read-out: MIC) was < 1 µg/mL. For the same molecule, the MIC ([11]; Finegoldia magna strain 7) was “A (a MIC (in μg/mL) of less than 1 is assigned the letter A)”, the MIC ([11]; Finegoldia magna strain 8) was “A (a MIC (in μg/mL) of less than 1 is assigned the letter A)” and the MIC ([11]; Finegoldia magna strain 9) was “A (a MIC (in μg/mL) of less than 1 is assigned the letter A)”. The MIC ([11]; Finegoldia magna strain 10) was “A (a MIC (in μg/mL) of less than 1 is assigned the letter A)”, the MIC ([11]; Finegoldia magna strain 11) was “A (a MIC (in μg/mL) of less than 1 is assigned the letter A)” and the MIC ([11]; Finegoldia magna strain 12) was “A (a MIC (in μg/mL) of less than 1 is assigned the letter A)”. The MIC ([12]; Parvimonas micra strain 1) was < 1 µg/mL, the MIC ([12]; Parvimonas micra strain 2) was < 1 µg/mL and the MIC ([12]; Parvimonas micra strain 3) was < 1 µg/mL. For the same molecule, the MIC ([12]; Parvimonas micra strain 4) was 1 to 4 µg/mL (≈ 0.69 to 2.76 µM), the MIC ([12]; Parvimonas micra strain 5) was 1 to 4 µg/mL (≈ 0.69 to 2.76 µM) and the MIC ([12]; Parvimonas micra strain 6) was < 1 µg/mL. For the same molecule, the MIC ([12]; Parvimonas micra strain 7) was 1 to 4 µg/mL (≈ 0.69 to 2.76 µM), the MIC ([12]; Parvimonas micra strain 8) was < 1 µg/mL and the MIC ([12]; Parvimonas micra strain 9) was < 1 µg/mL. The MIC ([12]; Parvimonas micra strain 10) was < 1 µg/mL, the MIC ([12]; Parvimonas micra strain 11) was < 1 µg/mL and the MIC ([12]; Parvimonas micra strain 12) was < 1 µg/mL. For the same molecule, the MIC ([13]; Prevotella bivia strain 1) was > 64 µg/mL, the MIC ([13]; Prevotella bivia strain 2) was > 64 µg/mL and the MIC ([13]; Prevotella bivia strain 3) was 16 to 64 µg/mL (≈ 11 to 44.2 µM). The MIC ([13]; Prevotella bivia strain 4) was > 64 µg/mL, the MIC ([13]; Prevotella bivia strain 5) was > 64 µg/mL and the MIC ([13]; Prevotella bivia strain 6) was > 64 µg/mL. The MIC ([13]; Prevotella bivia strain 7) was > 64 µg/mL, the MIC ([13]; Prevotella bivia strain 8) was 16 to 64 µg/mL (≈ 11 to 44.2 µM) and the MIC ([13]; Prevotella bivia strain 9) was > 64 µg/mL. The MIC ([13]; Prevotella bivia strain 10) was 16 to 64 µg/mL (≈ 11 to 44.2 µM).

Source: patent US10487093B2, “Heterocyclic compounds, in particular 2-oxo-4,4,5,5,6,6,7,7-octahydrobenzoxazole derivatives, and their use as antibacterial compounds” (priority 2016, dated 2019)
